Data taken from US20250313535A1, “ALPHA 4 BETA 7 INTEGRIN MODULATORS AND USES THEREOF” (DICE MOLECULES SV, INC., priority 2022, published 2025).
pIC50: −log10 of the molar value.

Experiments:
patients = settings: clinical trials; at the end of one year of treatment; cited from earlier work
α4β1 integrin = α4β1 integrin (Homo sapiens (Human), UniProt P05556+P13612); assay: Integrin Adhesion Assay: Protocol 2 (VCAM-coated plate, Jurkat cells, CellTiter GLO readout); format: cell-based; settings: determined by at least one of the assays described (protocol not specified)
Sequence of α4β1 integrin (P13612 34-1032): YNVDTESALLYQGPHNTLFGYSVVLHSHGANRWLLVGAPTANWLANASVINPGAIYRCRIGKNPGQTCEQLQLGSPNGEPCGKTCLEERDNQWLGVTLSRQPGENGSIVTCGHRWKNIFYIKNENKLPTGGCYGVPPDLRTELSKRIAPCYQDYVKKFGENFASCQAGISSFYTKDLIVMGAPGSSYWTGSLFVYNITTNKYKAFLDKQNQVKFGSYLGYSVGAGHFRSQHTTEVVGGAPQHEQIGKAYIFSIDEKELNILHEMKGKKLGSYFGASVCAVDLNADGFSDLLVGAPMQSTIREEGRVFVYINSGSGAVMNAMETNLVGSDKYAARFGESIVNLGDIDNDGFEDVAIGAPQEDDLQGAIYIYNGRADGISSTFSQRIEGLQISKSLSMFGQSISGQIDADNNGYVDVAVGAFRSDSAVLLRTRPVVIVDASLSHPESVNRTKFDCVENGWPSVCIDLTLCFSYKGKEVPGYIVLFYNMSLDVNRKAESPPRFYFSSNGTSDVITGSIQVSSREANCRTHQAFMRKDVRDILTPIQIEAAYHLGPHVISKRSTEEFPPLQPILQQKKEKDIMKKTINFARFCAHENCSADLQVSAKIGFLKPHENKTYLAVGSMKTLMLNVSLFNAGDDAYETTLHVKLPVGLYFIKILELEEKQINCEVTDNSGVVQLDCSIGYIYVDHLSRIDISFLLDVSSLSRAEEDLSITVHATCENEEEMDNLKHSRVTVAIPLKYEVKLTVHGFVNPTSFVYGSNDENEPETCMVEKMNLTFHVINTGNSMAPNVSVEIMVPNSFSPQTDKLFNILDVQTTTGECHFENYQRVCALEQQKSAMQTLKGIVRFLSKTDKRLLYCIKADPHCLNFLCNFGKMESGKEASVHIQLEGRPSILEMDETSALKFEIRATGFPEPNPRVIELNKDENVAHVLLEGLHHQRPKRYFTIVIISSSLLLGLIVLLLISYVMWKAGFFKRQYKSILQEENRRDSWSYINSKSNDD
Sequence of α4β1 integrin (P05556 21-798): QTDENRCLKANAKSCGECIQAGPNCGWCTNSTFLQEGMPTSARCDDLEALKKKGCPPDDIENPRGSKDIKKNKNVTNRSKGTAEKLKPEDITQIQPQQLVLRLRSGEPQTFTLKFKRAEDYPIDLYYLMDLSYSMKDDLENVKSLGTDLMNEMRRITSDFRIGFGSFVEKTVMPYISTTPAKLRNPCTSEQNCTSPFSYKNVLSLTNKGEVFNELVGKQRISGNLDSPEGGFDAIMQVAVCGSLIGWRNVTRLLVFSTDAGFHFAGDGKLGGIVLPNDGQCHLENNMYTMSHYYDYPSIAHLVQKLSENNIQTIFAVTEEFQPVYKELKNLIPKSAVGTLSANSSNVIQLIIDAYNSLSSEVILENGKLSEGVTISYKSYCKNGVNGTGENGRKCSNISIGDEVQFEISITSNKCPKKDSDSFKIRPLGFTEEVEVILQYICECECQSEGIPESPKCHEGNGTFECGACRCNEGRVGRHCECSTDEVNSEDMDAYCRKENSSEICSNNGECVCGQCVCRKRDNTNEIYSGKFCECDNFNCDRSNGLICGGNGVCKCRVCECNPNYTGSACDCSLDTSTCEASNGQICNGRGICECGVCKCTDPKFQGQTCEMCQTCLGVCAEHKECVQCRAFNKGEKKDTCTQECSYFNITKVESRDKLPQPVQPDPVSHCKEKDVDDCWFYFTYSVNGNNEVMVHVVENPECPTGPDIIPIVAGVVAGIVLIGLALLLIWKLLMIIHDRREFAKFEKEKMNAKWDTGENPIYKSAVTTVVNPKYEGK
Procedure, shortened: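 Jurkat cells (2×10^6 per mL) adhered to VCAM-coated (0.1 ug/well), BSA-blocked wells with compound (1% DMSO) for 1 h at 37° C in 10 mM HEPES, 150 mM NaCl, 1 mM MnCl2, 0.1 mM CaCl2. After four washes, bound cells were quantified by CellTiter-Glo luminescence. Percent inhibition versus DMSO and control-compound wells was fitted to a 4-parameter curve.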

α4β7 integrin = α4β7 integrin (Homo sapiens (Human), UniProt P13612+P26010); assay: Integrin Adhesion Assay: Protocol 1 (MAdCAM-coated plate, RPMI-8866 cells, CellTiter GLO readout); format: cell-based; settings: integrin adhesion assay; determined by at least one of the assays described (protocol not specified)
Sequence of α4β7 integrin (P13612 34-1032): as the sequence (P13612 34-1032) above
Sequence of α4β7 integrin (P26010 20-798): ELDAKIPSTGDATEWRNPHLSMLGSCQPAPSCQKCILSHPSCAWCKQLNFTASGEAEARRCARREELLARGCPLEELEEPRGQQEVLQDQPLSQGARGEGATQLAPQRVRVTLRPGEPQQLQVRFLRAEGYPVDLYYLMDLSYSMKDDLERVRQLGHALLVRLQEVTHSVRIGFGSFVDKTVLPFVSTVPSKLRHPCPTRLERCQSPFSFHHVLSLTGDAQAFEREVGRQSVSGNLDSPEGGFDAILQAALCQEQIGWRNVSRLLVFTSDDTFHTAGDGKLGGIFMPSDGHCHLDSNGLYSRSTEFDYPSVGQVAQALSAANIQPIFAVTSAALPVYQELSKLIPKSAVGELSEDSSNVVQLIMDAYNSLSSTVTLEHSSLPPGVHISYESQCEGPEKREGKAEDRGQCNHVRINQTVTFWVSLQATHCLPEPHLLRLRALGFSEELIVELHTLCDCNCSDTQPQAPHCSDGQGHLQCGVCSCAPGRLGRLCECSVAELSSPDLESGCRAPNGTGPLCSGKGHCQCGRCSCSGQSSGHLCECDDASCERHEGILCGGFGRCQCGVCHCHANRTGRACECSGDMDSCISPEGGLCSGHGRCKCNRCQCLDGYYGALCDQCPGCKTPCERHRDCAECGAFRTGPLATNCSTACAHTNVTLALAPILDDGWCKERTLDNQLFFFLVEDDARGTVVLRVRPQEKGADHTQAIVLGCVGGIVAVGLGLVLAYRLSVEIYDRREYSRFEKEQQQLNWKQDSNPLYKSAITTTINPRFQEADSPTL
Procedure, shortened: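 RPMI-8866 cells (2×10^6 per mL) added with compounds (1% DMSO) to MAdCAM-coated wells blocked in HEPES/NaCl buffer with 1 mM MnCl2, 0.1 mM CaCl2, 1% BSA; 1 h at 37° C, 5% CO2. After four washes, bound cells read by CellTiter GLO luminescence; % inhibition vs DMSO and control wells, 4-parameter fit.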

Molecule | patients receiving ENTYVIO achieved remission (patients) | pIC50 (α4β1 integrin) | pIC50 (α4β7 integrin)
vedolizumab [ENTYVIO] | approximately 30% | – | –
Cn1ccc(=O)n(-c2cccc3c(C[C@H](NC(=O)C4C(C)(C)CN(CC(F)(F)F)CC4(C)C)C(=O)O)cccc23)c1=O [Compound 156] | – | < 6.00 | 6.00 to 7.00
O=C(N[C@@H](Cc1cccc2c(-c3cccc4ccncc34)cccc12)C(=O)O)c1c(F)cc(N2CCOC[C@@H]2C(F)(F)F)cc1CN1CCOCC1 [Compound 149] | – | < 6.00 | 7.00 to 8.00
O=C(N[C@@H](Cc1cccc2c(-c3nccc4ccncc34)cccc12)C(=O)O)c1c(F)cc(N2CCOC[C@@H]2CC(F)F)cc1CN1CCOCC1 [Compound 46] | – | < 6.00 | > 8.00
O=C(N[C@@H](Cc1cccc2c(-c3cccc4ccncc34)cccc12)C(=O)O)c1c(F)cc(N(CC(F)(F)F)CC(F)(F)F)cc1CN1CCCC1 [Compound 151] | – | < 6.00 | > 8.00
Cn1ccc(C(F)(F)F)c(-c2nccc3c(C[C@H](NC(=O)c4c(F)cc(NCC(F)(F)F)cc4CN4CCCC4)C(=O)O)cccc23)c1=O [Compound 254] | – | < 6.00 | > 8.00
CC(=O)N1CCC(C)(C(=O)N[C@@H](Cc2cccc3c(-n4c(=O)ccn(C)c4=O)cccc23)C(=O)O)CC1 [Compound 50] | – | < 6.00 | 6.00 to 7.00
CC(C)CN1CCC(C)(C(=O)N[C@@H](Cc2cccc3c(-n4c(=O)ccn(C)c4=O)cccc23)C(=O)O)CC1 [Compound 59] | – | < 6.00 | 7.00 to 8.00
O=C(N[C@@H](Cc1cccc2c(-c3cccc4ccncc34)nccc12)C(=O)O)c1c(F)cc(N(CC(F)(F)F)CC(F)(F)F)cc1CN1CCCC1 [Compound 222] | – | < 6.00 | > 8.00
Cn1ccc(=O)n(-c2cccc3c(C[C@H](NC(=O)C45CCN(CC4)CC5)C(=O)O)cccc23)c1=O [Compound 62] | – | < 6.00 | < 6.00
Cn1ccc(C(F)(F)F)c(-c2nccc3c(C[C@H](NC(=O)c4c(Cl)cc(N5CCOC[C@@H]5C(F)(F)F)cc4CN4CCOCC4)C(=O)O)cccc23)c1=O [Compound 225] | – | < 6.00 | > 8.00
Cn1ccc(C(F)(F)F)c(-c2nccc3c(C[C@H](NC(=O)c4c(F)cc(N5CCOC[C@@H]5C(F)(F)F)cc4CN4CCCC4)C(=O)O)cccc23)c1=O [Compound 253] | – | < 6.00 | > 8.00
Cn1ccc(=O)n(-c2cccc3c(C[C@H](NC(=O)c4c(F)cccc4F)C(=O)O)cccc23)c1=O [Compound 1] | – | 6.00 to 7.00 | 7.00 to 8.00
Cn1ccc(C(F)(F)F)c(-c2nccc3c(C[C@H](NC(=O)c4c(Cl)cc(N5CCOC[C@@H]5C(F)(F)F)cc4CN4CCC(F)(F)CC4)C(=O)O)cccc23)c1=O [Compound 224] | – | < 6.00 | 7.00 to 8.00
O=C(N[C@@H](Cc1cccc2c(-c3cccc4ccncc34)nccc12)C(=O)O)c1c(F)cc(NCC(F)(F)F)cc1CN1CCCC1 [Compound 256] | – | < 6.00 | 7.00 to 8.00
Cn1ccc(=O)n(-c2cccc3c(C[C@H](NC(=O)c4c(F)ccc(NS(=O)(=O)C(F)(F)F)c4F)C(=O)O)cccc23)c1=O [Compound 12] | – | 6.00 to 7.00 | > 8.00
O=C(N[C@@H](Cc1cccc2c(-c3cccc4ccncc34)nccc12)C(=O)O)c1c(F)cc(N2CCOC[C@@H]2C(F)(F)F)cc1F [Compound 220] | – | < 6.00 | 7.00 to 8.00
CCOCc1cc(OC)c(-c2cccc3c(C[C@H](NC(=O)c4c(F)cc(N5CCOC[C@@H]5C(F)(F)F)cc4F)C(=O)O)cccc23)c(OC)c1 [Compound 171] | – | 6.00 to 7.00 | > 8.00
O=C(N[C@@H](Cc1cccc2c(-c3cccc4ccncc34)nccc12)C(=O)O)c1c(F)cc(CN2CCOCC2)cc1F [Compound 223] | – | < 6.00 | < 6.00

Molecule | patients receiving ENTYVIO achieved remission (patients) | pIC50 (α4β1 integrin) | pIC50 (α4β7 integrin)
Cn1ccc(=O)n(-c2cccc3c(C[C@H](NCc4ccccc4)C(=O)O)cccc23)c1=O [Compound 69] | – | < 6.00 | < 6.00
Cc1cc(N2CCOC[C@@H]2C(F)(F)F)cc(F)c1C(=O)N[C@@H](Cc1cccc2c(-c3c(C(F)(F)F)ccn(C)c3=O)nccc12)C(=O)O [Compound 215] | – | < 6.00 | > 8.00
Cn1ccc(=O)n(-c2cccc3c(C[C@H](NC(=O)[C@]45C[C@@H]6C[C@H](C4)C(F)(F)[C@@H](C6)C5)C(=O)O)cccc23)c1=O [Compound 65] | – | 6.00 to 7.00 | 6.00 to 7.00
Cn1ccc(=O)n(-c2cccc3c(C[C@H](NC(=O)c4c(F)cc5ncccc5c4F)C(=O)O)cccc23)c1=O [Compound 133] | – | < 6.00 | > 8.00
Cn1ccc(=O)n(-c2cccc3c(C[C@H](NC(=O)c4c(F)cc(CN5CCC5)cc4F)C(=O)O)cccc23)c1=O [Compound 33] | – | < 6.00 | < 6.00
CCN1CCC(C)(C(=O)N[C@@H](Cc2cccc3c(-n4c(=O)ccn(C)c4=O)cccc23)C(=O)O)C(F)(F)C1 (stereo partly drawn) [Compound 56] | – | < 6.00 | 6.00 to 7.00
CC(C)N1CCC(C)(C(=O)N[C@@H](Cc2cccc3c(-n4c(=O)ccn(C)c4=O)cccc23)C(=O)O)CC1 [Compound 57] | – | < 6.00 | 7.00 to 8.00
Cn1ccc(=O)n(-c2cccc3c(C[C@H](NC(=O)c4c(F)cc5cn(CC(F)(F)F)nc5c4F)C(=O)O)cccc23)c1=O [Compound 144] | – | 6.00 to 7.00 | 7.00 to 8.00
C[C@H]1COCCN1c1cc(F)c(C(=O)N[C@@H](Cc2cccc3c(-c4c(C(F)(F)F)ccn(C)c4=O)nccc23)C(=O)O)c(F)c1 [Compound 216] | – | < 6.00 | 7.00 to 8.00
Cn1ccc(C(F)(F)F)c(-c2cccc3c(C[C@H](NC(=O)c4c(F)cc(N5CCOC[C@@H]5C(F)(F)F)cc4CN4CCOCC4)C(=O)O)cccc23)c1=O [Compound 143] | – | 6.00 to 7.00 | > 8.00
CCOCc1cc(OC)c(-c2nccc3c(C[C@H](NC(=O)c4c(F)cc(N5CCOC[C@@H]5C(F)(F)F)cc4F)C(=O)O)cccc23)c(OC)c1 [Compound 259] | – | 6.00 to 7.00 | > 8.00
Cn1ccc(=O)n(-c2cccc3c(C[C@H](NC(=O)c4c(F)cccc4CN4CCOCC4)C(=O)O)cccc23)c1=O [Compound 167] | – | 6.00 to 7.00 | > 8.00
CNC(=O)[C@@H]1CCN1C(=O)c1ccc2cc(C(=O)N[C@@H](Cc3cccc4c(-n5c(=O)ccn(C)c5=O)cccc34)C(=O)O)ccc2c1 [Compound 127] | – | < 6.00 | < 6.00
CN(C)CCn1ccc(=O)n(-c2cccc3c(C[C@H](NC(=O)c4c(F)cccc4F)C(=O)O)cccc23)c1=O [Compound 119] | – | < 6.00 | 7.00 to 8.00
Cn1ccc(=O)n(-c2cccc3c(C[C@H](NC(=O)[C@@]4(C)CCCN(CC(F)(F)F)CC4)C(=O)O)cccc23)c1=O [Compound 157] | – | < 6.00 | 7.00 to 8.00
Cc1cc(C(F)(F)F)c(-c2cccc3c(C[C@H](NC(=O)c4c(F)cc(N5CCOC[C@@H]5C(F)(F)F)cc4F)C(=O)O)cccc23)c(=O)n1C [Compound 113] | – | 6.00 to 7.00 | > 8.00
CNC(=O)[C@@H]1CC[C@H](c2ccccc2)N1C(=O)c1ccc2cc(C(=O)N[C@@H](Cc3cccc4c(-n5c(=O)ccn(C)c5=O)cccc34)C(=O)O)ccc2c1 [Compound 128] | – | < 6.00 | 6.00 to 7.00
O=C(N[C@@H](Cc1cccc2c(-c3cccc4ccncc34)cccc12)C(=O)O)c1c(F)cc(N2CCOC[C@@H]2C(F)(F)F)cc1F [Compound 47] | – | < 6.00 | 7.00 to 8.00
O=C(N[C@@H](Cc1cccc2c(-c3nccc4ccncc34)cccc12)C(=O)O)c1c(F)cc(CN2CCC2)cc1F [Compound 37] | – | < 6.00 | < 6.00
